Measured values from patent US20080153700A1, “Fungicidal Mixtures” (Basf Aktiengesellschaft, priority 2004, published 2008).

System: Plasmopara viticola
Assay: activity against peronospora of grapevines caused by Plasmopara viticola (protective spray on potted vines)
Format: in vivo, Plasmopara viticola on vines of the cultivar "Riesling"
Conditions: individual active compound, untreated control 88% infection
Experimental: The active compounds, separately or jointly, were prepared as a stock solution comprising 0.25% by weight of active compound in acetone or DMSO. 1% by weight of the emulsifier Uniperol® EL (wetting agent having emulsifying and dispersant action based on ethoxylated alkylphenols) was added to this solution, and the mixture was diluted with water to the desired concentration.
Use example—activity against peronospora of grapevines caused by Plasmopara viticola
Leaves of potted vines of the cultivar “Riesling” were sprayed to runoff point with an aqueous suspension having the concentration of active compound stated below. The next day, the undersides of the leaves were inoculated with an aqueous zoospore suspension of Plasmopara viticola. The grapevines were then initially placed in a water-vapor-saturated chamber at 24° C. for 48 hours and then in a greenhouse at 20-30° C. for 5 days. After this period of time, the plants were again placed in a humid chamber for 16 hours to promote sporangiophore eruption. The extent of the development of the disease on the undersides of the leaves was then determined visually.
The visually determined percentages of infected leaf areas were converted into efficacies in % of the untreated control:
The efficacy (E) is calculated as follows using Abbot's formula: […]
α corresponds to the fungicidal infection of the treated plants in % and β corresponds to the fungicidal infection of the untreated (control) plants in %
An efficacy of 0 means that the infection level of the treated plants corresponds to that of the untreated control plants; an efficacy of 100 means that the treated plants were not infected.
The expected efficacies of mixtures of active compounds were determined using Colby's formula (Colby, S. R. “Calculating synergistic and antagonistic responses of herbicide combinations”, Weeds, 15, 20-22, 1967) and compared with the observed efficacies.
E expected efficacy, expressed in % of the untreated control, when using the mixture of the active compounds A and B at the concentrations a and b x efficacy, expressed in % of the untreated control, when using the active compound A at the concentration a y efficacy, expressed in % of the untreated control, when using the active compound B at the concentration b

| SMILES | Efficacy in % of the untreated control (16 ppm in the spray liquor) [%] | Efficacy in % of the untreated control (63 ppm in the spray liquor) [%] |
| --- | --- | --- |
| CC1CCN(c2c(-c3c(F)cc(F)cc3F)c(Cl)nc3ncnn23)CC1 [compound I, 5-chloro-7-(4-methylpiperidin-1-yl)-6-(2,4,6-trifluorophenyl)[1,2,4]triazolo[1,5-a]pyrimidine] | 55 | 66 |
| Cc1ccc(N(SC(F)(Cl)Cl)S(=O)(=O)N(C)C)cc1 [compound II, N-dichlorofluoromethylthio-N′,N′-dimethyl-N-p-tolylsulfamide] | 0 | 21 |
